What all share (assay type): cell-based
One assay deals with T1, P-selectin (Homo sapiens, UniProt P16109).
T1 sequence (P16109 whole entry): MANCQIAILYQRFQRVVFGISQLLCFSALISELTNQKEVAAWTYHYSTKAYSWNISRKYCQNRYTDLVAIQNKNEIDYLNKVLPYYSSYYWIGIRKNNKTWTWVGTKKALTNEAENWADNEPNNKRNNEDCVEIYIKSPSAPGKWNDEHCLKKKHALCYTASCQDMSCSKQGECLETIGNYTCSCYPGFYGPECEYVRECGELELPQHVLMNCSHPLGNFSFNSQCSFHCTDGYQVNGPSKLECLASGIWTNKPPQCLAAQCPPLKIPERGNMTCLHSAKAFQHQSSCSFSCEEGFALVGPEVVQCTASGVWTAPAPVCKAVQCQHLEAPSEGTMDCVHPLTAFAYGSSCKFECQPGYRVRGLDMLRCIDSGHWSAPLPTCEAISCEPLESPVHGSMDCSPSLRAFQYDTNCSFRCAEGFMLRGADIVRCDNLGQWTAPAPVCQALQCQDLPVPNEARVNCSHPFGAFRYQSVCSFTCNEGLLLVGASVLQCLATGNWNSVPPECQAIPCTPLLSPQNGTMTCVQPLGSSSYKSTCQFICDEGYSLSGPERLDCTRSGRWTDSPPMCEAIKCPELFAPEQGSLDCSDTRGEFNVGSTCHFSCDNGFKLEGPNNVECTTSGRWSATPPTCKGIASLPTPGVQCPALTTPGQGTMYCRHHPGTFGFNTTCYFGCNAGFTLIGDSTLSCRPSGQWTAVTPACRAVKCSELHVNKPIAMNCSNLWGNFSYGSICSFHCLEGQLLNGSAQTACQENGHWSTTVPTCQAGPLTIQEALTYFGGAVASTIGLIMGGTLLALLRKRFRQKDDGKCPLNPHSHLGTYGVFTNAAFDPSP
The assay is described as follows: (§1) Displacement of immobilized sulfatide from P-selectin transfected in african green monkey COS cells by IgG-based competitive ELISA. A general note: ELISA stands for enzyme-linked immunosorbent assay.

In assay [1] the target is T2, P-selectin (Homo sapiens) (UniProt P16109).
T2 sequence (whole entry): T1 sequence (P16109 whole entry)
The assay is described as follows: Inhibition of human P-selectin-dependent adhesion of activated platelets to HL60 cells after 30 mins by flow cytometry. The conditions noted are these: HL-60.

Assay [2] in a line: Inhibition of human P-selectin receptor globulin adhesion to HL60 cells. Particulars: HL-60.
For assay [3], the target named is T2, P-selectin (Homo sapiens). Described as §1.

The source made the active and inactive calls. No cut-off for these calls is given here.

With `CCCCC/C=C/C/C=C/CCCCCCCC(=O)OC(COC(=O)CCCCCCCCCCCCCCC)COP(=O)(O)OCC(O)CO` (stereo unspecified) [PHOSPHATIDYL GLYCEROL], the IC50 at P-selectin came to 1000 nM. Further, the inhibition in assay [1] worked out at 0%.
`CCCCCCCCCCCCCCCC(=O)OCC(CO[C@H]1O[C@H](CS(=O)(=O)O)[C@@H](O)[C@H](O)[C@H]1O)OC(=O)CCCCCCCCCCCCCCC` (stereo partly specified) [SULFONOQUINOVOSYL DIPALMITOYL GLYCERIDE]: the IC50 at P-selectin worked out at 5000 nM; in assay [2], 40 µM. In assay [1], this compound came in with an inhibition of 24%.
On to `CCCCCCCCCCCCCC(=O)OCC(COP(=O)(O)OCCN)OC(=O)CCCCCCCCCCCCC` (stereo unspecified), for which the result in assay [3] was inactive.

Broadly, the IC50 is the midpoint of a concentration-inhibition curve. As a reminder, the inhibition is the share of the control response that was lost under treatment.

These data come from ChEMBL document CHEMBL1146397, “Isolation and structure determination of sulfonoquinovosyl dipalmitoyl glyceride, a P-selectin receptor inhibitor from the alga Dictyochloris fragrans” (J Nat Prod, 1997).
